Where a chain is given by its changes, count along the chain named.
Experiments:
[1] = test system: Nonstructural protein 5A (Hepatitis C virus), Q5L478 [UNDEFINED MUTATION]; test: Inhibition of HCV genotype 1a NS5A L31V mutant assessed as reduction in viral RNA level by cell based real time PCR method; conditions: Hepatitis C virus subtype 1a
[2] = molecular target: T1, Nonstructural protein 5A (Hepatitis C virus) (UniProt Q5L478); test: Inhibition of wild type HCV genotype 2b NS5A assessed as reduction in viral RNA level by cell based real time PCR method; conditions: Hepatitis C virus subtype 2b
T1 sequence (whole entry): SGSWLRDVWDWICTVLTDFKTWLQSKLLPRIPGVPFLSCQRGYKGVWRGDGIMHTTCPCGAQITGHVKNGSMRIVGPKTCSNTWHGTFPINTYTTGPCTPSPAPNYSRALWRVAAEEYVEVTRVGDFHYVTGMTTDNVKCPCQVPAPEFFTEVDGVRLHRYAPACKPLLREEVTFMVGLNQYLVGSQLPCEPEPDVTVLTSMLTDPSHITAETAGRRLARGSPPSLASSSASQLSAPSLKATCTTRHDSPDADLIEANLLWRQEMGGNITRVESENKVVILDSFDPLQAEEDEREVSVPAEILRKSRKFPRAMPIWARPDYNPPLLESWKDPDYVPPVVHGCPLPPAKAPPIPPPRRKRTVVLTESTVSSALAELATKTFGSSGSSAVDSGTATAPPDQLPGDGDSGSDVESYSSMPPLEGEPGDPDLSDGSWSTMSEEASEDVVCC

[3] = Oral bioavailability in rat at 5 mg/kg; assay type: ADME, organism-based; conditions: in vivo
[4] = AUC in rat at 5 mg/kg; assay type: ADME, organism-based; conditions: in vivo
[5] = molecular target: T1, Nonstructural protein 5A (Hepatitis C virus); test: Inhibition of wild type HCV genotype 1a NS5A assessed as reduction in viral RNA level by cell based real time PCR method; conditions: Hepatitis C virus subtype 1a
[6] = test system: T2, Nonstructural protein 5A (Hepatitis C virus), Q5L478 [Y93H]; test: Inhibition of HCV genotype 1a NS5A Y93H mutant assessed as reduction in viral RNA level by cell based real time PCR method; conditions: Hepatitis C virus subtype 1a
T2 sequence (whole entry): T1 sequence (whole entry) with Y93H

[7] = Cmax in rat at 5 mg/kg; assay type: ADME, organism-based; parameters: dose 5 mg/kg; conditions: in vivo
[8] = Half life in rat at 5 mg/kg; assay type: ADME, organism-based; conditions: in vivo
[9] = Drug level in rat at 10 mg/kg measured at 1 hr; assay type: ADME, organism-based; conditions: in vivo, read-out: Drug uptake
[10] = Cmax in rat at 10 mg/kg; assay type: ADME, organism-based; parameters: dose 10 mg/kg; conditions: in vivo
[11] = Tmax in rat at 10 mg/kg; assay type: ADME, organism-based; conditions: in vivo

| SMILES | EC90 [1] | EC90 [2] | bioavailability [3] | AUC [4] | EC90 [5] | EC90 [6] | Cmax [7] | half-life [8] | concentration at 1 h [9] | Cmax [10] | Tmax [11] |
| --- | --- | --- | --- | --- | --- | --- | --- | --- | --- | --- | --- |
| COC(=O)N[C@H](C(=O)N1CCC[C@H]1c1ncc(-c2ccc3c(c2)O[C@@H](c2ccccc2)n2c-3cc3cc(-c4cnc([C@@H]5CCCN5C(=O)[C@@H](NC(=O)OC)C5CCOCC5)[nH]4)ccc32)[nH]1)C1CCOCC1 | < 0.2 nM | 1.2 nM | 0% | 4 nM·h | 0.06 nM | 23 nM | 20 nM | 2.4 h |  |  |  |
| COC(=O)N[C@H](C(=O)N1CCC[C@H]1c1ncc(-c2ccc3c(c2)cc2n3[C@H](c3ccccc3)Oc3cc(-c4cnc([C@@H]5CCCN5C(=O)[C@@H](NC(=O)OC)C5CCOCC5)[nH]4)ccc3-2)[nH]1)C(C)C | 0.4 nM | 4 nM |  |  | 0.061 nM | 11 nM |  |  | 30 nM | 31 nM | 0.75 h |
| COCC[C@H](NC(=O)OC)C(=O)N1CCC[C@H]1c1ncc(-c2ccc3c(c2)O[C@@H](c2ccccc2)n2c-3cc3cc(-c4cnc([C@@H]5CCCN5C(=O)[C@H](CCOC)NC(=O)OC)[nH]4)ccc32)[nH]1 | 2.1 nM | 91 nM |  |  | 0.061 nM | 46 nM |  |  |  |  |  |
